Measured values reported in a compilation of properties of binary mixtures (doi:10.1016/j.fluid.2019.112304).

Experiment: xn = mol fraction of the nth substance listed
Settings: 101 kPa

CCCCO + CCCCCCCCCCCC[N+](C)(C)Cc1ccccc1.O=S(=O)([N-]S(=O)(=O)C(F)(F)F)C(F)(F)F
x2 = 0
Settings	viscosity [mPa·s]
303.15 K	2.23
318.15 K	1.56
323.15 K	1.42
328.15 K	1.27
333.15 K	1.11
338.15 K	1.01

CCCCCCCCCCCC[N+](C)(C)Cc1ccccc1.O=S(=O)([N-]S(=O)(=O)C(F)(F)F)C(F)(F)F + CCCCO
viscosity [mPa·s]
Settings	x1 = 0.1507	x1 = 0.3015	x1 = 0.4494	x1 = 0.594	x1 = 0.7485	x1 = 0.9164	x1 = 1
298.15 K	15.3	43.6	103	208	505	1066	–
303.15 K	12.4	–	78	153	362	748	970
308.15 K	10.4	–	60.1	115	266	532	–
313.15 K	8.75	22	47.2	86.1	–	386	485
318.15 K	–	18.1	–	69.1	150	285	351
323.15 K	6.4	14.9	30.4	57.2	117	210	261
328.15 K	5.54	12.5	24.9	46.8	91.6	–	197
333.15 K	–	10.5	–	–	76.8	125	152
338.15 K	4.24	8.87	17.2	33.8	–	99	–
343.15 K	3.75	7.58	14.6	29	–	79.2	91.8
348.15 K	3.43	6.53	12.2	–	46.3	68	77.5

c1ccsc1 + N#C[C-](C#N)C#N.OCC[n+]1ccccc1
x2 = 0
Settings	viscosity [mPa·s]
293.15 K	0.653
298.15 K	0.615
308.15 K	0.545
313.15 K	0.518
318.15 K	0.491
323.15 K	0.464
328.15 K	0.441
338.15 K	0.4
343.15 K	0.382

N#C[C-](C#N)C#N.OCC[n+]1ccccc1 + c1ccsc1
viscosity [mPa·s]
Settings	x1 = 0.4042	x1 = 0.4996	x1 = 0.6	x1 = 0.7041	x1 = 0.8044	x1 = 0.901	x1 = 1
293.15 K	19.9	29.5	40.2	–	67	91.2	–
298.15 K	16.3	23.6	31.8	41.2	51.6	–	97
303.15 K	13.6	–	25.5	32.7	40.1	–	71.8
308.15 K	11.5	15.8	20.7	26.1	31.6	39.6	54.6
313.15 K	10	13.4	17.2	21.2	25.6	31.6	42.3
318.15 K	8.78	11.4	14.4	17.7	–	25.7	34
323.15 K	7.81	9.87	–	14.8	17.6	21.3	27.8
328.15 K	7.01	8.67	10.6	–	14.8	–	22.9
333.15 K	6.15	–	–	10.9	12.8	15.2	19.3
338.15 K	–	–	7.86	–	11.1	13.1	16.4
343.15 K	4.68	–	6.99	8.4	–	11.5	14
348.15 K	4.17	5.12	6.2	7.5	8.89	10.3	12.3
